The target in test [1] is Human immunodeficiency virus type 1 protease (Human immunodeficiency virus 1) (UniProt Q72874). Put plainly: Relative loss of potency of compound in inhibiting Protease was determined.
The target of test [2] is Human immunodeficiency virus type 1 protease (Human immunodeficiency virus 1, UniProt Q72874). In words: Inhibitory concentration against Protease.

SMILES strings stand for the structures.

In ChEMBL document CHEMBL1147618, “Crucial amides for dimerization inhibitors of HIV-1 protease” (Bioorg Med Chem Lett, 2004) one finds Relative loss of potency and IC50 data, which are given here for 7 compounds.

Consider `CC(C)C[C@H](NC(=O)[C@H]([C@H](C)O)N(C)C(=O)CCCCCCCCCCCCCCC(=O)N[C@@H](C(N)=O)C(=O)N[C@H](Cc1ccccc1)C(=O)O)C(=O)N[C@@H](Cc1ccccc1)C(N)=O`, for which, in test [1], the Relative loss of potency turned out to be 1.4. For the same compound, in test [2], 8.3 µM corresponded to half-maximal inhibition (IC50). In the case of `CC(C)C[C@H](NC(=O)[C@@H](NC(=O)CCCCCCCCCCCCCCC(=O)N[C@@H](C(N)=O)C(=O)N(C)[C@H](Cc1ccccc1)C(=O)O)[C@H](C)O)C(=O)NCCc1ccccc1`, in test [2], the IC50 – broadly, the concentration at which inhibition is half-maximal – came out at 5.8 µM. Consider `CC(C)C[C@H](NC(=O)[C@@H](NC(=O)CCCCCCCCCCCCCCC(=O)N(C)[C@@H](C(N)=O)C(=O)N[C@H](Cc1ccccc1)C(=O)O)[C@H](C)O)C(=O)N[C@@H](Cc1ccccc1)C(N)=O`, for which 4.5 µM corresponded to half-maximal inhibition in test [2] (IC50). In test [1], `CC(C)C[C@@H](C(=O)N[C@@H](Cc1ccccc1)C(N)=O)N(C)C(=O)[C@@H](NC(=O)CCCCCCCCCCCCCCC(=O)N[C@@H](C(N)=O)C(=O)N[C@H](Cc1ccccc1)C(=O)O)[C@H](C)O` had a Relative loss of potency of 1.4. Besides, the IC50 in test [2] was determined as 8 µM. In the same order, the values of `CC(C)C[C@H](NC(=O)[C@@H](NC(=O)CCCCCCCCCCCCCCC(=O)N[C@@H](C(N)=O)C(=O)N(C)[C@H](Cc1ccccc1)C(=O)O)[C@H](C)O)C(=O)N[C@@H](Cc1ccccc1)C(N)=O` are 1.6 and 9.6 µM. In test [1], `CC(C)C[C@H](NC(=O)[C@@H](NC(=O)CCCCCCCCCCCCCCC(=O)N[C@@H](C(N)=O)C(=O)N[C@H](Cc1ccccc1)C(=O)O)[C@H](C)O)C(=O)N[C@@H](Cc1ccccc1)C(N)=O` yielded a Relative loss of potency of 1. The midpoint of inhibition in test [2], the IC50, lay at 5.9 µM.

`CC(C)C[C@H](NC(=O)[C@@H](NC(=O)CCCCCCCCCCCCCCC(=O)N[C@@H](C(N)=O)C(=O)N[C@H](Cc1ccccc1)C(=O)O)[C@H](C)O)C(=O)N(C)[C@@H](Cc1ccccc1)C(N)=O`: in test [1], the Relative loss of potency was 2.2. This compound also showed an IC50 in test [2] of 13 µM.
